# Assay results reported in patent US20200347264A1, “COMPOSITIONS FOR CONTAINERS AND OTHER ARTICLES AND METHODS OF USING SAME” (SWIMC LLC, priority 2012, published 2020).
# Tested on: MCF-7, clone WS8, cells
# Experiment: MCF-7 cell proliferation assay of estrogenic activity
# Type: cell-based, human
# Conditions: logarithmic (base 10) Relative Proliferative Effect vs 17-beta estradiol in the MCF-7 assay; values called expected or measured
# Text: The MCF-7 assay uses MCF-7, clone WS8, cells to measure whether and to what extent a substance induces cell proliferation via estrogen receptor (ER)-mediated pathways. The method is described in “Test Method Nomination: MCF-7 Cell Proliferation Assay of Estrogenic Activity” submitted for validation by CertiChem, Inc. to the National Toxicology Program Interagency Center for the Evaluation of Alternative Toxicological Methods (NICEATM) on Jan. 19, 2006 (available online at http://iccvam.niehs.nih.gov/methods/endocrine/endodocs/SubmDoc.pdf).
# A brief summary of the method of the aforementioned MCF-7 assay is provided below. MCF-7, clone WS8, cells are maintained at 37° C. in RMPI (Roswell Park Memorial Institute medium) containing Phenol Red (e.g., GIBCO Catalog Number 11875119) and supplemented with the indicated additives for routine culture. An aliquot of cells maintained at 37° C. are grown for 2 days in phenol-free media containing 5% charcoal stripped fetal bovine serum in a 25 cm^2 tissue culture flask. Using a robotic dispenser such as an epMotion 5070 unit, MCF-7 cells are then seeded at 400 cells per well in 0.2 ml of hormone-free culture medium in Corning 96-well plates. The cells are adapted for 3 days in the hormone-free culture medium prior to adding the test chemical to be assayed for activity. The media containing the test chemical is replaced daily for 6 days. At the end of the 7-day exposure to the test chemical, the media is removed, the wells are washed once with 0.2 ml of HBSS (Hanks' Balanced Salt Solution), and then assayed to quantify amounts of DNA per well using a micro-plate modification of the Burton diphenylamine (DPA) assay, which is used to calculate the level of cell proliferation.
# RPE is the ratio between the EC50 of the test chemical and the EC50 of the control substance 17-beta estradiol times 100, where EC50 is “effective concentration 50^0/” or half-maximum stimulation concentration for cell proliferation measured as total DNA in the MCF-7 assay.
row,Structure (SMILES),Log RPE
1,C[C@]12CC[C@@H]3c4ccc(O)cc4CC[C@H]3[C@@H]1CC[C@@H]2O [17β-estradiol],2.00
2,CC(C(=O)O)(c1ccc(O)cc1)c1ccc(O)cc1,less than −4
3,CC(C)(c1cc(Br)c(O)c(Br)c1)c1cc(Br)c(O)c(Br)c1,−3
4,CC(C)(C)c1cc(O)c(C(C)(C)C)cc1O,less than −4
5,O=S(=O)(c1ccc(O)cc1)c1ccc(O)cc1 [Bisphenol S],−2

# Target: T1, human estrogen receptor (Homo sapiens, UniProt P03372)
# T1 sequence (P03372 1-595): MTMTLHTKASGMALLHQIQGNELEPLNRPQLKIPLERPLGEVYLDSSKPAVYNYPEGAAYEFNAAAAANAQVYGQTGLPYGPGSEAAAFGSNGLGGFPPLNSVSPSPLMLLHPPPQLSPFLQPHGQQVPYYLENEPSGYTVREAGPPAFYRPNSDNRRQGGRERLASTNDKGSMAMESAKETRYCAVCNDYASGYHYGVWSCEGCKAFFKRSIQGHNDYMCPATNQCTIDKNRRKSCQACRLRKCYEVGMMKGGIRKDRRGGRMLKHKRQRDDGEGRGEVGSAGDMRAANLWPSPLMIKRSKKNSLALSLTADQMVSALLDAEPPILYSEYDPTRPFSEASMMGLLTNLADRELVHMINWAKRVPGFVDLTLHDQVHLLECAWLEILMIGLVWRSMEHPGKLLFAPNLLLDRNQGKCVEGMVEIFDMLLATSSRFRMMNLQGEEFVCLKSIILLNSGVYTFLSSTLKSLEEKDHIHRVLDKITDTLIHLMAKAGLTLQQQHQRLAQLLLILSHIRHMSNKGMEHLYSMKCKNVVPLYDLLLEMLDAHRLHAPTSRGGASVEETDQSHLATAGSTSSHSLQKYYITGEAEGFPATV
# Experiment: in vitro assay of estrogenic activity correlated to the MCF-7 assay
# Type: cell-based
# Conditions: suitable in vitro assay correlated to MCF-7 assay; assay not named for hydroquinone
row,Structure (SMILES),estrogenic activity
1,Oc1ccc(O)cc1 [hydroquinone],appreciably non-estrogenic
2,CC(C)(C)c1cc(O)c(C(C)(C)C)cc1O,does not exhibit appreciable estrogenic activity
